According to ChEMBL document CHEMBL1212733, “Chemical genomics in Escherichia coli identifies an inhibitor of bacterial lipoprotein targeting” (Nat Chem Biol, 2009):
The source made the active and inactive calls.

How the values were obtained:
Pseudomonas aeruginosa [1] = assay: Antibacterial activity against multidrug-resistant Pseudomonas aeruginosa PS35823 after 16 hrs by microbroth dilution method; format: functional; conditions: PS35823, 16 h
Escherichia coli [2] = assay: Induction of Lpp accumulation in inner membrane of Escherichia coli K-12 MG1655 at 320 ug/ml after 20 mins by SDS-PAGE; format: functional, organism-based
Pseudomonas aeruginosa [3] = assay: Antibacterial activity against multidrug-resistant Pseudomonas aeruginosa PS8534624 after 16 hrs by microbroth dilution method; format: functional; conditions: PS8534624, 16 h
[4] = target: Outer-membrane lipoprotein carrier protein (Escherichia coli (strain K12), UniProt P61316); assay: Binding affinity to Escherichia coli K-12 lolA expressed in Escherichia coli BL21(AI) by NMR spectrometry
[5] = target: T1, Outer-membrane lipoprotein carrier protein (Escherichia coli (strain K12)) (UniProt P61316); assay: Inhibition of IPTG-stimulated Escherichia coli K-12 lolA at 4 fold MIC by microarray analysis
T1 sequence (whole entry): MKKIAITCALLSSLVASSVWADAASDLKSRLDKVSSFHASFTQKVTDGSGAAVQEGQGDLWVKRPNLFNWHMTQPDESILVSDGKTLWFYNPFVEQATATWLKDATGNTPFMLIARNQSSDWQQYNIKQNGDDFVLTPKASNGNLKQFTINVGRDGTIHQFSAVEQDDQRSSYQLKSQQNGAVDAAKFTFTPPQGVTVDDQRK

Pseudomonas aeruginosa [6] = assay: Antibacterial activity against multidrug-resistant Pseudomonas aeruginosa PAE302 after 16 hrs by microbroth dilution method; format: functional; conditions: PAE302, 16 h
Micrococcus luteus = assay: Antibacterial activity against Micrococcus luteus after 16 hrs by microbroth dilution method; format: functional
Pseudomonas aeruginosa [7] = assay: Antibacterial activity against multidrug-resistant Pseudomonas aeruginosa PS364 after 16 hrs by microbroth dilution method; format: functional; conditions: PS364, 16 h
[8] = target: T1, Outer-membrane lipoprotein carrier protein (Escherichia coli (strain K12)); assay: Inhibition of IPTG-stimulated Escherichia coli K-12 lolA at 8 fold MIC by microarray analysis
Pseudomonas aeruginosa [9] = assay: Antibacterial activity against multidrug-resistant Pseudomonas aeruginosa PAE231 after 16 hrs by microbroth dilution method; format: functional; conditions: PAE231, 16 h
Pseudomonas aeruginosa [10] = assay: Antibacterial activity against multidrug-resistant Pseudomonas aeruginosa PS37834 after 16 hrs by microbroth dilution method; format: functional; conditions: PS37834, 16 h
Pseudomonas aeruginosa [11] = assay: Antibacterial activity against multidrug-resistant Pseudomonas aeruginosa PS232 after 16 hrs by microbroth dilution method; format: functional; conditions: PS232, 16 h
Escherichia coli [12] = assay: Antibacterial activity against Escherichia coli K-12 MG1655 after 16 hrs by microbroth dilution method; format: functional; conditions: K-12 MG1655, 16 h
[13] = target: Multidrug efflux pump subunit AcrB (Escherichia coli (strain K12)) (UniProt P31224); assay: Binding affinity to Escherichia coli K-12 MC1061 acrB assessed as decrease in susceptibility to compound efflux at 2 to 128 ug/ml after 16 hrs by plate reader assay
Burkholderia cepacia = assay: Antibacterial activity against Burkholderia cepacia B154408 after 16 hrs by microbroth dilution method; format: functional; conditions: B154408, 16 h
Pseudomonas aeruginosa [14] = assay: Antibacterial activity against multidrug-resistant Pseudomonas aeruginosa PS8539204 after 16 hrs by microbroth dilution method; format: functional; conditions: PS8539204, 16 h
Staphylococcus aureus = assay: Antibacterial activity against Staphylococcus aureus after 16 hrs by microbroth dilution method; format: functional
Pseudomonas aeruginosa [15] = assay: Antibacterial activity against multidrug-resistant Pseudomonas aeruginosa PS301 after 16 hrs by microbroth dilution method; format: functional; conditions: PS301, 16 h
Pseudomonas aeruginosa [16] = assay: Antibacterial activity against multidrug-resistant Pseudomonas aeruginosa PAE252 after 16 hrs by microbroth dilution method; format: functional; conditions: PAE252, 16 h
Pseudomonas aeruginosa [17] = assay: Antibacterial activity against multidrug-resistant Pseudomonas aeruginosa PS36769 after 16 hrs by microbroth dilution method; format: functional; conditions: PS36769, 16 h
Pseudomonas aeruginosa [18] = assay: Antibacterial activity against multidrug-resistant Pseudomonas aeruginosa PS37619 after 16 hrs by microbroth dilution method; format: functional; conditions: PS37619, 16 h
Escherichia coli [19] = assay: Antibacterial activity against Escherichia coli K-12 harboring lolA gene after 16 hrs by serial dilution method; format: functional; conditions: K-12, 16 h
[20] = target: T2, Outer membrane protein TolC (Escherichia coli (strain K12)) (UniProt P02930); assay: Inhibition of IPTG-stimulated Escherichia coli K-12 tolC at 4 fold MIC by microarray analysis
T2 sequence (whole entry): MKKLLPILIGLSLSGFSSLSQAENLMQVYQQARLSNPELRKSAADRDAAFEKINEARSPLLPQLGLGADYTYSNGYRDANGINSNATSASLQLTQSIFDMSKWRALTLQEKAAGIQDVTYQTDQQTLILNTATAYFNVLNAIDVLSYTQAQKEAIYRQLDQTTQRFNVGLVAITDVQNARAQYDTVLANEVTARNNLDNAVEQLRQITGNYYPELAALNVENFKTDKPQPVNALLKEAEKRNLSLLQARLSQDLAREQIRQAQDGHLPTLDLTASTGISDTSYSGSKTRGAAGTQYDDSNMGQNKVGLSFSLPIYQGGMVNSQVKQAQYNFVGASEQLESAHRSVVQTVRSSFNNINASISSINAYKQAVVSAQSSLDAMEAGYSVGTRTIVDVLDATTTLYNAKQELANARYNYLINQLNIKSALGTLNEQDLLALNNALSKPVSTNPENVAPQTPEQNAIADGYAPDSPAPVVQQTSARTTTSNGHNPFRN

Bacillus subtilis = assay: Antibacterial activity against Bacillus subtilis 168 after 16 hrs by microbroth dilution method; format: functional; conditions: subsp. subtilis str. 168, 16 h
Pseudomonas aeruginosa [21] = assay: Antibacterial activity against multidrug-resistant Pseudomonas aeruginosa PS216 after 16 hrs by microbroth dilution method; format: functional; conditions: PS216, 16 h
Escherichia coli [22] = assay: Induction of Lpp accumulation in inner membrane of Escherichia coli K-12 MG1655 at 320 ug/ml after 20 mins by autoradiography; format: functional, organism-based
[23] = target: T1, Outer-membrane lipoprotein carrier protein (Escherichia coli (strain K12)); assay: Inhibition of IPTG-stimulated Escherichia coli K-12 lolA at 16 fold MIC after 16 hrs by spectrophotometry
[24] = target: T1, Outer-membrane lipoprotein carrier protein (Escherichia coli (strain K12)); assay: Inhibition of IPTG-stimulated Escherichia coli K-12 lolA at 16 fold MIC by microarray analysis
Pseudomonas aeruginosa [25] = assay: Antibacterial activity against multidrug-resistant Pseudomonas aeruginosa PAE287 after 16 hrs by microbroth dilution method; format: functional; conditions: PAE287, 16 h
Candida albicans = assay: Antifungal activity against Candida albicans after 16 hrs by microbroth dilution method; format: functional
Pseudomonas aeruginosa [26] = assay: Antibacterial activity against multidrug-resistant Pseudomonas aeruginosa PS225 after 16 hrs by microbroth dilution method; format: functional; conditions: PS225, 16 h
Pseudomonas aeruginosa [27] = assay: Antibacterial activity against Pseudomonas aeruginosa PAO1 after 16 hrs by microbroth dilution method; format: functional; conditions: PAO1, 16 h
HeLa = assay: Cytotoxicity against human HeLa cells after 24 hrs by Cell Titre-Glo luminescent assay; format: cell-based
Pseudomonas aeruginosa [28] = assay: Antibacterial activity against multidrug-resistant Pseudomonas aeruginosa PAE349 after 16 hrs by microbroth dilution method; format: functional; conditions: PAE349, 16 h
[29] = target: T2, Outer membrane protein TolC (Escherichia coli (strain K12)); assay: Inhibition of IPTG-stimulated Escherichia coli K-12 tolC at 8 fold MIC by microarray analysis
[30] = tested on: Stenotrophomonas maltophilia; assay: Antibacterial activity against Stenotrophomonas maltophilia B22020 after 16 hrs by microbroth dilution method; format: functional; conditions: B22020, 16 h
Escherichia coli [31] = assay: Antibacterial activity against Escherichia coli ATCC 25922 after 16 hrs by microbroth dilution method; format: functional; conditions: ATCC 25922, 16 h
[32] = target: T2, Outer membrane protein TolC (Escherichia coli (strain K12)); assay: Inhibition of IPTG-stimulated Escherichia coli K-12 tolC at 16 fold MIC by microarray analysis

Chain of Multidrug efflux pump subunit AcrB (Escherichia coli (strain K12)) (P31224 whole entry): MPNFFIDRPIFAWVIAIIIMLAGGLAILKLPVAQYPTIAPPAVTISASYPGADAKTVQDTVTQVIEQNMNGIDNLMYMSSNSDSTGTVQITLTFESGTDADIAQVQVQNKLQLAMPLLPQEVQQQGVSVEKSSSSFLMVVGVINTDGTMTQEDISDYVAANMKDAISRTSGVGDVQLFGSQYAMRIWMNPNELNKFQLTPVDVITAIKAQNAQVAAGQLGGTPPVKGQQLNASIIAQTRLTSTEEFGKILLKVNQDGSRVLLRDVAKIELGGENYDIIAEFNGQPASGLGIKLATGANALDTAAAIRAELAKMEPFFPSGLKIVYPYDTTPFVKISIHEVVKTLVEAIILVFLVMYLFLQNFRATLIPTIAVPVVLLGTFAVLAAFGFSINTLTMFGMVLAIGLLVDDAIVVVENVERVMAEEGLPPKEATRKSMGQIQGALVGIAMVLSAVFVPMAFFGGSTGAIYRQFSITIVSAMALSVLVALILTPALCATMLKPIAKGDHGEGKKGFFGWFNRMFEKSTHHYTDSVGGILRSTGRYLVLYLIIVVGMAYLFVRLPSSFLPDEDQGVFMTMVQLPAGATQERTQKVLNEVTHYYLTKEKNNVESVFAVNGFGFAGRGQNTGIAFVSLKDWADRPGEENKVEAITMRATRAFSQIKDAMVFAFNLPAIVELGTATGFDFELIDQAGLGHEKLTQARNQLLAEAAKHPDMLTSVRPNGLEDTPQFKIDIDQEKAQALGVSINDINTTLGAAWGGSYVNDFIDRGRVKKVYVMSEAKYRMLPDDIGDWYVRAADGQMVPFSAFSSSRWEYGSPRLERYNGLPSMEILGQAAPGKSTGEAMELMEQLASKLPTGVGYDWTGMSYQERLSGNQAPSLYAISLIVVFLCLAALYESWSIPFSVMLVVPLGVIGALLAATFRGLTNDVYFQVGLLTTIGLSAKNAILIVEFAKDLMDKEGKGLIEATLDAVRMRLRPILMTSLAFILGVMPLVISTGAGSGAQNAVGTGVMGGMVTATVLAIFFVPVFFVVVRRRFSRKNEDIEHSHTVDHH

COc1ccc(CCN2CN=C(SCc3ccc(Cl)cc3)NC2)cc1OC
> 256 µg/mL: MIC (Micrococcus luteus) | MIC (Staphylococcus aureus) | MIC (Bacillus subtilis) | MIC (Candida albicans) | Activity (HeLa)
8 µg/mL: MIC (Escherichia coli [19]) | MIC [30]
16 µg/mL: MIC (Pseudomonas aeruginosa [9]) | MIC (Pseudomonas aeruginosa [10]) | MIC (Escherichia coli [12]) | MIC (Pseudomonas aeruginosa [21]) | MIC (Escherichia coli [31])
inactive: inhibition [23]
256 µg/mL: MIC (Pseudomonas aeruginosa [15])
128 µg/mL: MIC (Pseudomonas aeruginosa [7]) | MIC (Burkholderia cepacia) | MIC (Pseudomonas aeruginosa [14]) | MIC (Pseudomonas aeruginosa [18])
active: Activity (Escherichia coli [2]) | inhibition [5] | inhibition [8] | Activity [13] | inhibition [20] | Activity (Escherichia coli [22]) | inhibition [24] | inhibition [29] | inhibition [32]
1 µg/mL: MIC (Pseudomonas aeruginosa [26])
7.5 µM: Kd [4]
4 µg/mL: MIC (Pseudomonas aeruginosa [1]) | MIC (Pseudomonas aeruginosa [6]) | MIC (Pseudomonas aeruginosa [11]) | MIC (Pseudomonas aeruginosa [17]) | MIC (Pseudomonas aeruginosa [25]) | MIC (Pseudomonas aeruginosa [27]) | MIC (Pseudomonas aeruginosa [28])
2 µg/mL: MIC (Pseudomonas aeruginosa [3]) | MIC (Pseudomonas aeruginosa [16])
